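Cultured in 96-well plates, cells were exposed to test compound for 48 hours across five concentrations. TGI is the concentration that stops growth completely.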
Legend:
Test in all cases: inhibition of tumour cell growth, NCI panel, 48 h
[1] = tested on: SK-MEL-2 melanoma
[2] = tested on: HCC-2998 colon
[3] = tested on: SNB-19 CNS
[4] = tested on: HCT-15 colon
[5] = tested on: MDA-MB-231 breast
[6] = tested on: A498 renal
[7] = tested on: NCI-H23 lung
[8] = tested on: HCT-116 colon
[9] = tested on: NCI/ADR-RES ovarian
[10] = tested on: UACC-257 melanoma
[11] = tested on: OVCAR-3 ovarian
[12] = tested on: OVCAR-5 ovarian
[13] = tested on: HT29 colon
[14] = tested on: PC-3 prostate
[15] = tested on: SF-539 CNS
[16] = tested on: K-562 leukemia
[17] = tested on: U251 CNS
[18] = tested on: UO-31 renal
[19] = tested on: MCF7 breast
[20] = tested on: SW-620 colon
[21] = tested on: SK-MEL-5 melanoma
[22] = tested on: MDA-MB-435
[23] = tested on: KM12 colon
[24] = tested on: NCI-H522 lung
[25] = tested on: ACHN renal
[26] = tested on: SN12C renal
[27] = tested on: MALME-3M melanoma
[28] = tested on: EKVX NSCLC
[29] = tested on: NCI-H226 lung
[30] = tested on: SF-268 CNS
[31] = tested on: COLO 205 colon
[32] = tested on: LOX IMVI melanoma
[33] = tested on: DU-145 prostate
[34] = tested on: SK-MEL-28 melanoma
[35] = tested on: RPMI-8226 leukemia
[36] = tested on: M14 melanoma
[37] = tested on: TK-10 renal
[38] = tested on: OVCAR-4 ovarian
[39] = tested on: SF-295 CNS
[40] = tested on: HOP-92 NSCLC
[41] = tested on: MDA-N
[42] = tested on: OVCAR-8 ovarian
[43] = tested on: A549 NSCLC
[44] = tested on: HL-60(TB) leukemia
[45] = tested on: CAKI-1 renal
[46] = tested on: NCI-H460 lung
[47] = tested on: T-47D breast
[48] = tested on: HOP-62 NSCLC
[49] = tested on: RXF 393 renal
[50] = tested on: SK-OV-3 ovarian
[51] = tested on: MOLT-4 leukemia
[52] = tested on: CCRF-CEM leukemia
[53] = tested on: IGROV1 ovarian
[54] = tested on: HS 578T breast
[55] = tested on: 786-0 renal
[56] = tested on: SR leukemia
[57] = tested on: UACC-62 melanoma
[58] = tested on: SNB-75 CNS

Measured: TGI

CCOC(=O)C(NC(=O)CC(C)C)(NC(C)C)C(F)(F)F (configuration not stated)
not listed: [57] | [58]
> 100 µM: all other assays above

CCC1=C(c2ccc(OC)cc2)CC[C@@]2(CCNC2=O)[C@@H]1C
> 95.9 µM: [16]
> 89.5 µM: [54]
58.7 µM: [21]
> 90.3 µM: [51]
not listed: [44] | [49]
> 100 µM: all other assays above
